{
  "source": "patent US20050106173A1",
  "about": "“METHODS AND COMPOSITIONS FOR TREATING MALE SEXUAL DYSFUNCTION” (priority 2003, published 2005)",
  "type_in_all_cases": "in vivo",
  "key": {"castrated Wistar rats [1]": {"tested_on": "castrated Wistar rats", "test": "Blood testosterone concentration by radio-immunoassay (RIA) in castrated rats", "conditions": "once daily for 30 days, blood after the erection test on day 31, RIA", "protocol": "(§1) To test the ability of the EMF-treated AS2.502 cells to improve male sexual function, hormone levels, and sexual organ development, 50 healthy adult male Wistar rats (about 150-180 g body weight, 8-10 weeks old) were selected. Ten rats were randomly selected to be the normal control group, CK1 (uncastrated rats). Under anesthesia with pentobarbital (5%, at 45 mg/kg body weight), both testes (including the epididymis) of each of the remaining 40 rats were removed under sterile conditions. Immediately after castration, Penicillin G was injected at 20,000 U/kg body weight once daily for five consecutive days. The castrated rats were then randomly divided into four equal groups, designated as AY (for treatment with the activated yeast composition), NY (for treatment with the control yeast composition), CK2 (for treatment with testosterone propionate), and CK3 (for treatment with saline). Each rat was kept separately. The activated yeast composition was administered to the AY rats at 1.2 ml/kg body weight once daily for 30 days. The control yeast composition was administered to the NY rats and saline was administered to the CK3 rats at the same dosage. […]\nEach rat was sacrificed after the erection test. Blood samples were collected from each rat, and the blood concentration of testosterone was determined by the standard radio-immunoassay (RIA) method."}, "[2]": {"tested_on": "castrated male Wistar rats", "test": "Sexual activity of castrated male rats caged with female rats (mounting, sniffing and licking frequency)", "conditions": "once daily for 30 days (yeast 1.2 ml/kg intragastric; testosterone propionate 2 mg/kg i.m.), day 29, two female rats in cage", "protocol": "as §1, with “100-120” for “150-180”, “6-8” for “8-10”, “days.” for “days. The control yeast composition was administered to the NY rats and saline was administered to the CK3 rats at the same dosage.”\nOn the twenty-ninth day of the experiment, two female rats (100-120 g, 6-8 weeks old) were put into the same cage as each male rat and kept there for 30 minutes. The frequency of the male rat's sniffing and licking of the female rats, and the frequency of the male rat's mounting of the female rats were recorded in Table 2."}, "[3]": {"tested_on": "castrated male Wistar rats", "test": "Wet weight of glandulae preputiales, seminal vesicle and prostate of castrated rats", "conditions": "once daily for 30 days, sacrificed day 31", "protocol": "as §1, with “100-120” for “150-180”, “6-8” for “8-10”\nEach male rat was sacrificed on the thirty-first day. […] The wet weight of the prostate and seminal vesicle was recorded in Table 2. […] The wet weight of the glandulae preputiales was also recorded in Table 2."}, "castrated Wistar rats [4]": {"tested_on": "castrated Wistar rats", "test": "Erectile function by electrical stimulation (erection lag) in castrated rats", "conditions": "once daily for 30 days, day 31, stimulator 55 Hz and 4.5 mA", "protocol": "as §1\nOn the thirty-first day of the experiment, an electrical stimulator was used to measure the erectile function of the rats. […] The time needed for the penis to achieve erection (“the erection lag”) was recorded in Table 3."}},
  "data": [
    {"smiles": "CCC(=O)O[C@H]1CC[C@H]2[C@@H]3CCC4=CC(=O)CC[C@]4(C)[C@H]3CC[C@]12C", "note": "[testosterone propionate]", "values": [
      {"measurement": "Testosterone Levels", "setting": "castrated Wistar rats [1]", "value": "124.17 ± 67.65", "unit": "ng/dL"},
      {"measurement": "Mounting Frequency Within a 30 min Period", "setting": "[2]", "value": "12.3 ± 4.6"},
      {"measurement": "Sniffing & Licking Frequency Within a 30 min Period", "setting": "[2]", "value": "22.7 ± 4.6"},
      {"measurement": "Glandulae Preputiales (wet weight)", "setting": "[3]", "value": "89.5 ± 14.6", "unit": "mg"},
      {"measurement": "Seminal Vesicle and Prostate (wet weight)", "setting": "[3]", "value": "198.7 ± 42.6", "unit": "mg"},
      {"measurement": "Erection Lag", "setting": "castrated Wistar rats [4]", "value": "19.3 ± 14.6", "unit": "s"}
    ]}
  ]
}
